Entries after “also recorded” stand apart in the source; their conditions may differ. No end group written: not given here.
Tests used:
[1] = test system: follicle in maturative growth; test: echographic monitoring of follicle-genesis (volume/diameter of the follicle in maturative growth) in women; format: in vivo, human (women)
Description: In the clinical trials reported below, GRF-29 was used in the form of lyophilized ampoules containing 100 or 150 micrograms (mcg) of GRF and 10 milligrams (mg) of mannitol as excipient. The lyophilized substance, dissolved in 2 ml of physiologic saline, was administered by the intravenous route.
In a clinical study carried out in conformity with the present invention women, both with normal follicle-genesis (as control) and follicle-genesisdeficiency were treated.
The study consisted in echographic and hormonal monitoring of follicle-genesis during which the volume of the follicle in maturative growth and the plasma levels of 17-beta estradiol and 17-alpha OH progesterone were recorded.
In the controls with normal follicle-genesis, 2 monitorings of the follicle-genesis were carried out in accordance with the above mentioned procedures: the first verified the basal situation and the second was under administration of GRF-29 at the dosage of 100 or 150 mcg/day i.v. from the 1st to the 7th day of the cycle.
In patients with follicle-genesis deficiency, monitorings of the follicle-genesis were carried out: without any medicinal administration (as control); under administration of GRF-29 at the dosage of 100 or 150 mcg/day i.v. from the 1st to the 7th day of the cycle; under administration of FSH (METRODIN® at the dosage of 75 or 150 I.U./day i.m. for 7 days; under the combined administration of FSH+GRF at the above dosage.

spermatozoa = test: treatment of male infertility: seminal parameters; format: in vivo, human (patients); conditions: oligospermia or azoospermia; 5 mcg/kg s.c. 3 times a week for three months; controls at 45 days and 3 months
Description: Patients suffering spermatogenesis deficiences of various entity with oligospermia or azoospermia, selected according to the criteria of the protocol, were treated for a period of three months with GRF-29 at the dosage of 5 mcg/kg s.c. 3 times a week.
The first control was carried out after 45 days from commencement of therapy, and the second control after 3 months.

[2] = test system: anti-GRF obtained in the rabbit (Amersham) against human GRF-44; conditions: rabbit anti-serum against human GRF-44 (Amersham); cited from earlier work
Sertoli cells = test: GRF binding to isolated Sertoli cells; parameters: species or system rat
Source text: Sertoli cells were isolated from the testicles of 14 day old rats, according to the techniques already decribed (A. Fabbri, et al.--Opiate receptors are present in the rat testis: Identification and localization on Sertoli cells. Endocrinology 117: 2544-2546, 1985). Briefly, the procedure consisted in the separation of the tubular compartment from the Leydig cells by means of enzymatic dispersion with collagenase and subsequent treatment of the tubules with trypsin and collagenase. The separated cells were applied to 48 well Costar plates at the concentration of approximately 100,000 cells per well. The cells were allowed to adhere to the bottom of the wells for 24 hours in a metabolic incubator at 34° C., in 95% O2 /5% CO2. The cells were then washed and incubated in TC 199 10 mM TRIS medium in the presence of iodine labelled GRF-44 at the concentration of 10^-11 M for 60 minutes at 4° C. in the presence or absence of 10^-6 M cold (unlabelled) human GRF-44. Then the cells were washed 3 times with PBS+0.5% BSA at 4° C.; the radio-activity bound to the cells was then solubilized with 0.1N NaOH and read in a gammacounter.

[3] = test system: serum levels of HGH, Sm-C, prolactin, LH, FSH; conditions: intravenous administration, normal subjects during the menstrual cycle; cited from earlier work

| Substance | observation of the cycle (follicular activation, dominance, ovulation, menstrual flow) ([1]; Case 1, normal follicle-genesis, GRF-29 100 mcg/day i.v.) | observation of the cycle (follicular activation, dominance, ovulation, menstrual flow) ([1]; Case 3, patient, GRF-29 150 mcg/day i.v.) | observation of the cycle (follicular activation, dominance, ovulation, menstrual flow) ([1]; Case 4, patient, GRF-29 100 mcg/day i.v.) | observation of the cycle (follicular activation, dominance, ovulation, menstrual flow) ([1]; Case 6, patient, GRF-29 150 mcg/day i.v. day 1-7) | observation of the cycle (follicular activation, dominance, ovulation, menstrual flow) ([1]; Case 7, patient, GRF-29 150 mcg/day i.v. day 1-7) | overall effect on follicle growth and ovulation ([1]; administration during the first phase of the cycle, all cases) | seminal parameters (number of spermatozoa, motility) (spermatozoa) | Cross-reactivity [2] | specific binding of GRF to Sertoli cells (Sertoli cells; iodine labelled GRF-44 10^-11 M, 60 minutes at 4° C., with or without 10^-6 M cold human GRF-44) | specific binding of GRF to Sertoli cells (Sertoli cells; recalculated per mg of protein) | effect on serum hormone levels [3] |
| --- | --- | --- | --- | --- | --- | --- | --- | --- | --- | --- | --- |
| GRF-29: biologically active fragment of Somatotrophin releasing factor; lyophilized ampoules of 100 or 150 mcg with 10 mg mannitol (YADAIFTNSYRKVLGQLSARKLLQDIMSR; ends and bridges not checked; UniProt P01286 32-60, looked up, fragment) | presence of follicular activation and evidence of a dominant follicle between the 13th and the 14th day of the cycle, with ovulation between the 15th and 16th day | presence of follicular activation, dominance and dehiscence | absence of ovulation but follicle-genesis was activated; also recorded: Menstrual flow occurred spontaneously on the 33rd day | good ovarian activation was observed, followed by the growth of two follicles (within a micropolycistic ovary, as stated above), which presented an involution around the 17th day of the cycle | presence of echographic notes of ovarian activation, but absence of follicular dominance | facilitates follicle growth and anticipates, or even induces, ovulation (dehiscence) | improvement of the seminal parameters, and especially an increase in the number of spermatozoa and their motility | 100% |  |  |  |
| GRF: Somatotrophin releasing factor; measured as immunoreactivity by RIA, binding done with iodine labelled human GRF-44 |  |  |  |  |  |  |  |  | 2.5 fmoles of peptide/70 mcg of protein | about 40 fmoles/mg of protein | produces an increase in serum levels of HGH and Sm-C but not of prolactin, LH or FSH |
